Test results published in BindingDB's records for doi:10.1016/j.ejphar.2003.10.049 (University of Innsbruck, 2004).

Experiments:
[1] = target: Kappa-type opioid receptor (Rattus norvegicus, UniProt P34975)
[2] = target: Delta-type opioid receptor (Rattus norvegicus, UniProt P33533)
[3] = target: Mu-type opioid receptor (Rattus norvegicus, UniProt P33535)
Sequence of Mu-type opioid receptor (P33535 whole entry): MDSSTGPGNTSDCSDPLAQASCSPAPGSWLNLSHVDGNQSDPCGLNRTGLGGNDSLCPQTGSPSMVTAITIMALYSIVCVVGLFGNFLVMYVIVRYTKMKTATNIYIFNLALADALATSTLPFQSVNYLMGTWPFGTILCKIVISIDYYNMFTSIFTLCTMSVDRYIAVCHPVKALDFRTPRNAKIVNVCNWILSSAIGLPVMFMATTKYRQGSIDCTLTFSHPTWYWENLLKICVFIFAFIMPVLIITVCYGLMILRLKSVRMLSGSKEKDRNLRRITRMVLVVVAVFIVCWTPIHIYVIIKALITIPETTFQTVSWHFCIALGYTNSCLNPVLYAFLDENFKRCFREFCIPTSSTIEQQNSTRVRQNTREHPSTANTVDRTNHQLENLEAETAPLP

Sequence of Kappa-type opioid receptor (P34975 whole entry): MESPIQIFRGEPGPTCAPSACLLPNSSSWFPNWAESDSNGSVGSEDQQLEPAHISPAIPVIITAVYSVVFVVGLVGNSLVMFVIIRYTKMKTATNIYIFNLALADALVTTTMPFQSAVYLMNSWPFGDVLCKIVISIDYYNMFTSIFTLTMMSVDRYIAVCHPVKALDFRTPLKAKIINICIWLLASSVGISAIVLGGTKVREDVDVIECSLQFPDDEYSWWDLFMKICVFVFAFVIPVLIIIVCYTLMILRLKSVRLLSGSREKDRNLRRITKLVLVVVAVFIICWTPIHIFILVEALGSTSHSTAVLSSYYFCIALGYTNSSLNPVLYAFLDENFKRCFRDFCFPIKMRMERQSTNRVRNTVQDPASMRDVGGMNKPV
Sequence of Delta-type opioid receptor (P33533 whole entry): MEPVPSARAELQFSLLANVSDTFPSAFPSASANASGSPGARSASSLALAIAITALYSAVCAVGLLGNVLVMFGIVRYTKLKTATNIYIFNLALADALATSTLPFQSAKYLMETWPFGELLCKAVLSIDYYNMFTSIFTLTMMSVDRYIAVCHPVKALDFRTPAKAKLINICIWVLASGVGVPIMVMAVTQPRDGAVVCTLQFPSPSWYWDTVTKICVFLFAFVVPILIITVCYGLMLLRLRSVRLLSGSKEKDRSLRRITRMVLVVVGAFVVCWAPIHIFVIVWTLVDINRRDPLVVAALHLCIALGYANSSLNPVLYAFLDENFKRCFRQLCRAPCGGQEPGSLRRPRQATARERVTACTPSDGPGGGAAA

## COC12CC[C@@H](N[C@H](C)C(=O)O)[C@@H]3Oc4c(O)ccc5c4[C@@]31CCN(C)C2C5 (stereo partly drawn) [(2S)-2-[4,5alpha-epoxy-3-hydroxy-14beta-methoxy-17-methylmorphinan-6beta-yl)amino]propanoic acid bis(tetrafluoroborate)]
[1]
  Ki: 63.7 nM
[2]
  Ki: 7.71 nM

## COC12CC[C@H](N[C@H](C)C(=O)O)[C@@H]3Oc4c(O)ccc5c4[C@@]31CCN(C)C2C5 (stereo partly drawn) [(2S)-2-[4,5alpha-epoxy-3-hydroxy-14beta-methoxy-17-methylmorphinan-6alpha-yl)amino]propanoic acid bis(tetrafluoroborate)]
[1]
  Ki: 142 nM
[2]
  Ki: 26.9 nM

## COC12CC[C@H](N[C@H](Cc3ccccc3)C(=O)O)[C@@H]3Oc4c(O)ccc5c4[C@@]31CCN(C)C2C5 (stereo partly drawn) [(2S)-2-[(4,5alpha-epoxy-3-hydroxy-14beta-methoxy-17-methylmorphinan-6alpha-yl)amino]-3-phenylpropanoic acid bis(tetrafluroborate)]
[3]
  Ki: 0.95 nM
[1]
  Ki: 28.5 nM

## CCO[C@@]12Cc3c([nH]c4ccccc34)[C@]3(C)Oc4c(O)ccc5c4[C@@]31CCN(CC1CC1)C2C5 [HS-378]
[3]
  Ki: 340 nM
[1]
  Ki: 134 nM

## COC12CC[C@@H](N[C@H](Cc3ccccc3)C(=O)O)[C@@H]3Oc4c(O)ccc5c4[C@@]31CCN(C)C2C5 (stereo partly drawn) [(2S)-2-[(4,5alpha-epoxy-3-hydroxy-14beta-methoxy-17-methylmorphinan-6beta-yl)amino]-3-phenylpropanoic acid bis(tetrafluoroborate)]
[3]
  Ki: 2.58 nM
[1]
  Ki: 151 nM
[2]
  Ki: 1.03 nM
